Square brackets hold non-standard residues; d marks the D form. Ends that are not written are not given here. Peptide text beside a SMILES is read from it. * marks the point of attachment. dPhe(F5) = N[C@H](Cc1c(F)c(F)c(F)c(F)c1F)C(=O)O; pGlu = O=C1CC[C@@H](C(=O)O)N1; Nle = CCCC[C@H](N)C(=O)O; βAla = NCCC(=O)O; NHPr = CCCN* Bounds are passed on as bounds.

The target in experiment [1] is T1, hNMB-receptor (Homo sapiens, UniProt P28336). In words: Whole cell radioligand binding, hNMB-receptor transfected Balb 3T3 cells. Particulars: IC50 hNMB-R Balb-3T3, hNMB-receptor transfected Balb 3T3 cells; 125I-[D-Tyr0]NMB, 1 h, 22°C; mean ± S.E.
T1 sequence (P28336 whole entry): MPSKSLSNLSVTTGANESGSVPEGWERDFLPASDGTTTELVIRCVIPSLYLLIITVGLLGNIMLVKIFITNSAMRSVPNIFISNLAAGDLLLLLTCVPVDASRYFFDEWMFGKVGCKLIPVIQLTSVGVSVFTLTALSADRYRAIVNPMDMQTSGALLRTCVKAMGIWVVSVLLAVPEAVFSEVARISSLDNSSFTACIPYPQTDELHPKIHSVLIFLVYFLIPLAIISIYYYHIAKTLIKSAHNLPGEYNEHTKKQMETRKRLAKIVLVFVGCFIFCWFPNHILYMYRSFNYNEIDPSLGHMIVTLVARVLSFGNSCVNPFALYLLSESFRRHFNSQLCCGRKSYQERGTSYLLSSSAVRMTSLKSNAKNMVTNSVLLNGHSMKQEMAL
Experiment [2] addresses T2, hGRP-receptor (Homo sapiens, UniProt P30550). In words: Whole cell radioligand binding, HuTu-80 cells.
For experiment [3], the target named is T1, hNMB-receptor. In words: Whole cell radioligand binding, hNMB-receptor transfected NCI-H1299 cells.
Another experiment deals with T3, hBRS-3 receptor (Homo sapiens, UniProt P32247).
T3 sequence (P32247 1-399): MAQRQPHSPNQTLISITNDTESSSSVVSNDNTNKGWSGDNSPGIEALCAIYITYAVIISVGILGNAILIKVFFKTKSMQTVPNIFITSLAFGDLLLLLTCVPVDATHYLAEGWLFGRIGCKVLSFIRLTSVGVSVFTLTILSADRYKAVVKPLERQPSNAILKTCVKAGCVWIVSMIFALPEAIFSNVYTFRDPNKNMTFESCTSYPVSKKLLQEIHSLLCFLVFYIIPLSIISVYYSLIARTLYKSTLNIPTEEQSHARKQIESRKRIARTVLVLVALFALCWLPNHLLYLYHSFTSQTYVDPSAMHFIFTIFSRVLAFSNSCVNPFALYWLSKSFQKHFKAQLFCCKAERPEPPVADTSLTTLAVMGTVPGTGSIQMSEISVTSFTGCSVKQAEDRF
In words: Whole cell radioligand binding, hBRS-3 transfected Balb 3T3 cells.

For experiment [4], the target named is T2, hGRP-receptor. In words: [3H]inositol phosphate generation, hGRP-receptor transfected Balb 3T3 cells. In kind it is cell-based.
Experiment [5] has as its target T2, hGRP-receptor. In words: [3H]inositol phosphate generation, HuTu-80 cells. In kind it is cell-based.
The target of experiment [6] is T1, hNMB-receptor. In words: cell-based. To be noted: for [3H]IP NCI-H1299 (hNMB-R) EC50: stimulation of [3H]IP generation.

T2 sequence (P30550 whole entry): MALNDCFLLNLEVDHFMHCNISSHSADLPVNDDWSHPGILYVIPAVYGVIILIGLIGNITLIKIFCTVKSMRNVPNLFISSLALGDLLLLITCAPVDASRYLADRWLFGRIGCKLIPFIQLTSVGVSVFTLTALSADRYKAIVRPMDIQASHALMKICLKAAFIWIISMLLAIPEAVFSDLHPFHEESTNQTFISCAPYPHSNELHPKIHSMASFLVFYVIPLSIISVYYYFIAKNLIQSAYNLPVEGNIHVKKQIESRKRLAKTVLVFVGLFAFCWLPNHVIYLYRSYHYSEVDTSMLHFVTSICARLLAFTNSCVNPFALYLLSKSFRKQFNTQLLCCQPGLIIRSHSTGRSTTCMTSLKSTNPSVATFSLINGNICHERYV

As a reminder, the IC50 is the point on the concentration scale where inhibition reaches its midpoint. High values mean lower potency, low ones higher potency. For the compound `CCNC(=O)[C@H](CC(C)C)NC(=O)[C@H](Cc1c[nH]cn1)NC(=O)CNC(=O)[C@@H](NC(=O)[C@H](C)NC(=O)[C@H](Cc1c[nH]c2ccccc12)NC(=O)[C@H](CCC(N)=O)NC(=O)[C@H](N)Cc1ccccc1)C(C)C` [Peptide 10, [D-Phe^6]Bn(6-13)Ethylamide], the IC50 is above 10 µM at hNMB-receptor [1]; 0.00222 ± 0.00013 µM on hGRP-receptor [2]; above 10 µM at hNMB-receptor [3]; above 10 µM at hBRS-3 receptor; 0.0525 ± 0.0043 µM at hGRP-receptor [4]; 0.0436 ± 0.0036 µM on hGRP-receptor [5].

As for `CC(C)C[C@H](NC(=O)[C@H](CC(C)C)NC(=O)[C@@H](Cc1ccccc1)NC(=O)CNC(=O)[C@@H](NC(=O)[C@H](C)NC(=O)[C@H](Cc1c[nH]c2ccccc12)NC(=O)[C@H](CCC(N)=O)NC(=O)[C@H](CC(N)=O)NC(=O)CNC(=O)[C@H](CC(C)C)NC(=O)[C@H](CCCNC(=N)N)NC(=O)[C@H](CCC(N)=O)NC(=O)[C@@H]1CCC(=O)N1)C(C)C)C(N)=O` [Peptide 1, [D-Phe^12, Leu^14]Bn] ([pGlu]QRLGNQWAVG[dF]LL-NH2), the IC50 on hNMB-receptor [1] and on hBRS-3 receptor was above 10 µM each time.

In the case of `CSCC[C@H](NC(=O)[C@H](CC(C)C)NC(=O)[C@H](Cc1c[nH]cn1)NC(=O)CNC(=O)[C@@H](NC(=O)[C@H](C)NC(=O)[C@H](Cc1c[nH]c2ccccc12)NC(=O)[C@H](Cc1c[nH]cn1)NC(=O)[C@H](CC(N)=O)NC(=O)CNC(=O)[C@H](CCCNC(=N)N)NC(=O)[C@@H]1CCCN1C(=O)[C@H](Cc1ccc(O)cc1)NC(=O)[C@H](CCSC)NC(=O)[C@H](CCCCN)NC(=O)[C@@H](NC(=O)[C@H](CC(C)C)NC(=O)[C@@H](NC(=O)[C@@H](NC(=O)CNC(=O)CNC(=O)CNC(=O)[C@H](C)NC(=O)[C@@H]1CCCN1C(=O)[C@H](CC(C)C)NC(=O)[C@@H]1CCCN1C(=O)[C@@H](N)C(C)C)[C@@H](C)O)C(C)C)[C@@H](C)O)C(C)C)C(N)=O` [GRP, gastrin-releasing peptide, reference compound], on hBRS-3 receptor, the “fold lower affinity for hBRS3 than for the ligand's own receptor” value is on record as > 10,000 fold.

With `CCCCCCNC(=O)[C@H](CC(C)C)NC(=O)[C@H](Cc1cnc[nH]1)NC(=O)CNC(=O)[C@@H](NC(=O)[C@H](C)NC(=O)[C@H](Cc1c[nH]c2ccccc12)NC(=O)[C@H](CCC(N)=O)NC(=O)[C@H](N)Cc1ccccc1)C(C)C` [Peptide 15, [D-Phe^6]Bn-(6-13)Hexylamide], the IC50 is 8.14 ± 0.4 µM on hNMB-receptor [1]; 0.00219 ± 4e-05 µM on hGRP-receptor [2]; above 10 µM at hNMB-receptor [3]; 3.25 ± 0.06 µM at hBRS-3 receptor; 0.38 ± 0.031 µM against hGRP-receptor [4]; 0.204 ± 0.014 µM at hGRP-receptor [5].

In the case of `CCCNC(=O)[C@H](CC(C)C)NC(=O)[C@H](Cc1c[nH]cn1)NC(=O)CNC(=O)[C@@H](NC(=O)[C@H](C)NC(=O)[C@H](Cc1c[nH]c2ccccc12)NC(=O)[C@H](CCC(N)=O)NC(=O)[C@H](N)Cc1ccc(O)cc1)C(C)C` [Peptide 12, [D-Tyr^6]Bn-(6-13)Propylamide (PA)], the 50% inhibitory concentration (IC50) at hNMB-receptor [1] is above 10 µM; on hGRP-receptor [2] it was 0.00141 ± 6e-05 µM; at hNMB-receptor [3], above 10 µM; at hBRS-3 receptor it was 1.9 ± 0.3 µM; on hGRP-receptor [4], 0.275 ± 0.013 µM; against hGRP-receptor [5], 0.0407 ± 0.0014 µM.

For NQWAVGHL-NH2 [Peptide 9, Bn(6-13)NH2], the IC50 at hNMB-receptor [1] and at hBRS-3 receptor was above 10 µM each time.

Consider `CC(C)C[C@H](NC(=O)[C@H](Cc1cnc[nH]1)NC(=O)CNC(=O)[C@@H](NC(=O)[C@H](C)NC(=O)[C@H](Cc1c[nH]c2ccccc12)NC(=O)[C@H](CCC(N)=O)NC(=O)[C@H](N)Cc1ccccc1)C(C)C)C(N)=O` [Peptide 8, [D-Phe^6]Bn(6-13)NH2], for which the IC50 was above 10 µM on hNMB-receptor [1]; 0.00493 ± 0.00039 µM on hGRP-receptor [2]; above 10 µM on hNMB-receptor [3]; above 10 µM at hBRS-3 receptor; 0.416 ± 0.008 µM at hGRP-receptor [4]; above 10 µM at hNMB-receptor [6]. Also, the midpoint of inhibition on hGRP-receptor [5], the IC50, lay at 0.398 ± 0.011 µM.

For the compound `CCCC[C@H](NC(=O)[C@H](Cc1ccccc1)NC(=O)[C@H](Cc1cnc[nH]1)NC(=O)CCNC(=O)[C@@H](NC(=O)[C@H](C)NC(=O)[C@H](Cc1c[nH]c2ccccc12)NC(=O)[C@H](CCC(N)=O)NC(=O)[C@H](N)Cc1ccc(O)cc1)C(C)C)C(N)=O` [Peptide 35, [D-Tyr^6, β-Ala^11,Phe^13, Nle^14]Bn-(6-14), reference compound] (H-[dY]QWAV[βAla]HF[Nle]-NH2), the IC50 came out at 0.00031 ± 1e-05 µM on hNMB-receptor [1] and 0.00055 ± 3e-05 µM on hBRS-3 receptor.

On to `CSCC[C@H](NC(=O)[C@@H](Cc1c[nH]c2ccccc12)NC(=O)[C@@H](Cc1c[nH]c2ccccc12)NC(=O)[C@H](Cc1ccccc1)NC(=O)[C@@H](Cc1c[nH]c2ccccc12)NC(=O)[C@H](CCC(N)=O)NC(=O)[C@H](CCC(N)=O)NC(=O)[C@H]1CCCN1)C(N)=O` [Peptide 4, [D-Pro^4, D-Trp^7,9,10]SP-(4-11)] (H-[dP]QQ[dW]F[dW][dW]M-NH2), for which the IC50 on hNMB-receptor [1] is above 10 µM; on hGRP-receptor [2], above 10 µM; at hNMB-receptor [3] it was above 10 µM; at hBRS-3 receptor, 2.3 ± 0.4 µM; on hGRP-receptor [4], above 3 µM; on hNMB-receptor [6] it was 7.08 ± 0.344 µM. In addition, the concentration for half-maximal inhibition (IC50) against hGRP-receptor [5] is above 3 µM. On hNMB-receptor [6], the “[3H]IP NCI-H1299 (hNMB-R) EC50” value is on record as “No act”.

Take `CC(C)C[C@H](NC(=O)[C@H](CC(C)C)NC(=O)[C@@H](Cc1c[nH]c2ccccc12)NC(=O)[C@H](Cc1ccccc1)NC(=O)[C@@H](Cc1c[nH]c2ccccc12)NC(=O)[C@H](CCC(N)=O)NC(=O)[C@H](CCC(N)=O)NC(=O)[C@@H]1CCCN1C(=O)[C@H](CCCCN)NC(=O)[C@@H]1CCCN1C(=O)[C@H](N)CCCNC(=N)N)C(N)=O` [Peptide 3, [D-Arg^1, D-Trp^7,9, Leu^11]SP] (H-[dR]PKPQQ[dW]F[dW]LL-NH2): the “[3H]IP NCI-H1299 (hNMB-R) EC50” value on hNMB-receptor [6] is “No act”.

With `COC(=O)[C@H]1CCCN1C(=O)[C@H](Cc1c[nH]cn1)NC(=O)[C@@H](C)NC(=O)[C@@H](NC(=O)[C@H](C)NC(=O)[C@H](Cc1c[nH]c2ccccc12)NC(=O)[C@H](Cc1c[nH]cn1)NC(=O)[C@H](N)Cc1c(F)c(F)c(F)c(F)c1F)C(C)C` [Peptide 19, [D-F-5-Phe^6, His^7, D-Ala^11, D-Pro^13]Bn(6-13)ME] (H-[dPhe(F5)]HWAV[dA]H[dP]-OMe), the IC50 on hNMB-receptor [1] and at hBRS-3 receptor was above 10 µM throughout.

On to `CCCCCCCNC(=O)[C@H](CC(C)C)NC(=O)[C@H](Cc1c[nH]cn1)NC(=O)CNC(=O)[C@@H](NC(=O)[C@H](C)NC(=O)[C@H](Cc1c[nH]c2ccccc12)NC(=O)[C@H](CCC(N)=O)NC(=O)[C@H](N)Cc1ccccc1)C(C)C` [Peptide 16, [D-Phe^6]Bn(6-13)Heptylamide], for which the results for the half-inhibitory concentration (IC50) on hNMB-receptor [1] and at hBRS-3 receptor were 6.1 ± 0.63 µM and above 10 µM, respectively.

As to `CCCNC(=O)[C@H](Cc1ccccc1)NC(=O)[C@H](Cc1c[nH]cn1)NC(=O)CNC(=O)[C@@H](NC(=O)[C@H](C)NC(=O)[C@H](Cc1c[nH]c2ccccc12)NC(=O)[C@H](CCC(N)=O)NC(=O)[C@H](N)Cc1ccccc1)[C@@H](C)O` [Peptide 13, [D-Phe^6,Thr^10, Phe^13]Bn(6-13)PA] (H-[dF]QWATGHF-NHPr), the IC50 was 1.32 ± 0.03 µM at hNMB-receptor [1] and above 10 µM on hBRS-3 receptor.

As to `CCCCNC(=O)[C@H](CC(C)C)NC(=O)[C@H](Cc1c[nH]cn1)NC(=O)CNC(=O)[C@@H](NC(=O)[C@H](C)NC(=O)[C@H](Cc1c[nH]c2ccccc12)NC(=O)[C@H](CCC(N)=O)NC(=O)[C@H](N)Cc1ccccc1)C(C)C` [Peptide 14, [D-Phe^6]Bn(6-13)Butylamide (BA)], the half-inhibitory concentration (IC50) on hNMB-receptor [1] came to 3.11 ± 0.16 µM; on hGRP-receptor [2], 0.00102 ± 9e-05 µM; on hNMB-receptor [3] it was 1.78 ± 0.03 µM; at hBRS-3 receptor, 0.692 ± 0.027 µM; against hGRP-receptor [4], 0.0213 ± 0.0016 µM; at hGRP-receptor [5] it was 0.0155 ± 0.002 µM.

These data come from paper PMC2766550 (Peptides, 2009).
